# What was measured:
# [1] = test system: interferon β (Ifnb) gene; experiment: Gene expression (qPCR) of RAW264.7 macrophages infected with DL-treated MNV-1: Ifnb; assay type: cell-based; conditions: MNV-1 exposed to 1.0% DL (pH 6.5 before denaturation) for 60 min, MOI 0.01, 24 h, fold-change vs mock by ΔΔCt, n = 3
# Procedure: (§1) RAW264.7 cell monolayers (1 × 10^7 cells/mL) in T25 cell flasks (Thermo Fisher Scientific K. K., Tokyo, Japan) were inoculated as described below.
# (§2) Live MNV-1 (6 log PFU/mL) was used at a multiplicity of infection (MOI) of 0.01. For some experiments, MNV-1 (6 log PFU/mL) was inactivated by heating at 100°C for 40 min in an oil bath. The heat-treated MNV-1 was then used at MOI of 0.01 (infectivity as determined before heat inactivation). For another set of experiments, 100 μL of MNV-1 (6 log PFU/mL) was mixed with 100 μL of 2.0% of DL (adjusted at pH 6.5 before thermally-denaturation) and allowed to stand at room temperature for 60 min. The mixture was used at MOI of 0.01 (infectivity as before DL treatment).
# (§3) The inoculated RAW264.7 cell monolayers were incubated at 37°C under 5% CO2 for 24 h. The cells were then detached by using a cell scraper (Thermo Fisher Scientific) and centrifuged at 300 × g for 5 min. […]
# (§4) Total RNA was extracted from inoculated RAW264.7 macrophages using the RNeasy Mini kit (Qiagen, Hilden, Germany), according to the manufacturer’s instructions. […] The resulting cDNA was amplified by quantitative polymerase chain reaction (qPCR) to quantitate the expression levels of interferon β (Ifnb) and interleukin 6 (Il6) genes. […] Fold-changes in mRNA abundance were calculated by the ΔΔCt method, as previously described.
# [2] = test system: MNV-1; experiment: Plaque assay for MNV-1 infectivity after exposure to DL preparations at different pH; assay type: cell-based, murine norovirus strain 1
# Procedure: The infectivity of MNV-1 was determined by a plaque assay, as described previously [9]. Briefly, RAW264.7 cells were seeded into 6-well plates (Falcon BD, Franklin Lakes, NJ) at approximately 6 log cells/mL in DMEM containing 5% (v/v) FBS, penicillin (100 U/mL), and streptomycin (100 μg/mL). The plates were incubated at 37°C under 5% CO2 for 18 h. Then, 500 μL/well of samples prepared as described below sections were added to the plates, and the plates were shaken at 20 r/min for 1 h. The inoculated sample was removed, and the wells overlaid with 2 mL of 1.5% (v/v) SeaPlaque agarose (Lonza Japan, Tokyo, Japan) in DMEM containing 5% (v/v) FBS. The plates were incubated at 37°C under 5% CO2 for 48 h. Then, 2 mL of 0.03% (v/v) neutral red solution (Sigma-Aldrich Japan, Tokyo, Japan) was added, and the plates incubated at 37°C under 5% CO2 for 1 h. Thus, visualized plaques were then counted. […] The samples were then diluted 10-fold in DMEM to stop the virus inactivation reaction and analyzed by the plaque assay, as described above.
# [3] = test system: MNV-1; experiment: MNV-1 inactivation by heat-denatured Lzm peptides (plaque assay); assay type: cell-based, murine norovirus strain 1; conditions: peptides at same molar concentration as 1.0% (w/v) lysozyme, or DL 1% pH 3.7; heat-denatured 100°C 40 min; MNV-1 approx. 6 log PFU/mL, 60 min, room temperature; mean, n = 3
# Procedure: The infectivity of MNV-1 was determined by a plaque assay, as described previously. Briefly, RAW264.7 cells were seeded into 6-well plates (Falcon BD, Franklin Lakes, NJ) at approximately 6 log cells/mL in DMEM containing 5% (v/v) FBS, penicillin (100 U/mL), and streptomycin (100 μg/mL). The plates were incubated at 37°C under 5% CO2 for 18 h. Then, 500 μL/well of samples prepared as described below sections were added to the plates, and the plates were shaken at 20 r/min for 1 h. The inoculated sample was removed, and the wells overlaid with 2 mL of 1.5% (v/v) SeaPlaque agarose (Lonza Japan, Tokyo, Japan) in DMEM containing 5% (v/v) FBS. The plates were incubated at 37°C under 5% CO2 for 48 h. Then, 2 mL of 0.03% (v/v) neutral red solution (Sigma-Aldrich Japan, Tokyo, Japan) was added, and the plates incubated at 37°C under 5% CO2 for 1 h. Thus, visualized plaques were then counted. The synthesized peptides were dissolved in distilled water to the same molarity as 2.0% (w/v) lysozyme, 14,307 of molecular weight, and heated in an oil bath at 100°C for 40 min, then immediately cooled in ice. Next, 120 μL of MNV-1 solution at 6 log pfu/mL was mixed with 120 μL of the prepared heat-denatured peptides, and allowed to stand for 60 min at room temperature. The samples were immediately diluted 10-fold in DMEM and analyzed by the plaque assay, as described above.
# [4] = test system: MNV-1; conditions: after exposure to DL for 1 h; cited from earlier work
# Source text: We have reported that thermally denatured lysozyme (DL) inactivates norovirus. […] Furthermore, DL inactivates norovirus in several foods and is also effective against the hepatitis A virus. However, the conditions for optimal DL norovirus-inactivating effects and the underlying mechanism remain unclear.
# [5] = Surface hydrophobicity, protein stability and aggregation assay kit (PSA200K); assay type: physicochemical; conditions: 1% lysozyme solution, pH 4.5–8.5, DL denatured 100°C 40 min, 1X PSA solution, λEx 550 nm, λEm 610 nm, compared with native lysozyme at same pH, p < 0.01, n = 3
# Procedure: Hydrophobicity, thiol group content, and circular dichroism (CD) spectra of the different DL preparations were analyzed. Hydrophobicity was measured by using protein stability and aggregation assay kit (PSA200K, Profoldin, Hudson, MA), according to the manufacturer’s instructions. Sample excitation was measured at 550 nm and emission at 610 nm, using a spectrofluorometer (SH-9000, Corona Electric Co., Ltd., Ibaraki, Japan). Thiol group content was determined in a reaction mixture containing 192 μL of deionized water, 20 mM Tris-HCl at pH 8.0, 2.8 μL of Ellman’s reagent [prepared by dissolving 4 mg of 5,5′-dithiobis-(2-nitrobenzoic acid) powder in 1 mL of Tris buffer at pH 7.0], and 200 μL of 1.0% (w/v) DL. After incubation at room temperature for 1 h in the dark, sample absorbance was measured at 412 nm by using a microplate reader (SH-1000 Lab, Corona Electric Co., Ltd.). CD spectra were acquired using a circular dichroism dispersometer (J-720, JASCO Corporation, Tokyo, Japan). For the analysis, DL preparation was diluted to 100 μg/mL in distilled water, and the spectra acquired in the range of 190 to 250 nm, with a scanning speed of 100 nm/min, a bandwidth of 1 nm, and integration frequency of 10.
# [6] = test system: interleukin 6 (Il6) gene; experiment: Gene expression (qPCR) of RAW264.7 macrophages infected with DL-treated MNV-1: Il6; assay type: cell-based; conditions: MNV-1 exposed to 1.0% DL (pH 6.5 before denaturation) for 60 min, MOI 0.01, 24 h, fold-change vs mock by ΔΔCt, n = 3
# Procedure: as §1, §2, §3, §4
# [7] = stated in discussion, no reference given; cited from earlier work
# Source text: Lysozyme is a positively charged protein with an isoelectric point of 11. We anticipated that in a high-pH solution (pH 6.5–8.5), the intermolecular forces would become stronger, thus, denaturing the protein structure upon heating. In other words, adjusting the pH to a high value would trigger the loosening of the protein structure during thermal denaturation. […] Of ...
Substance,Decrease in MNV-1 infectivity (log reduction) [3],further results
"DL: thermally denatured egg white lysozyme, prepared at pH 3.7–8.5",0.9 log PFU/mL,"Expression of the Ifnb gene [1]: did not increase; Infectivity of MNV-1 after exposure, trend with pH ([2]; 0.1% and 0.5% DL final, preparations at different pH, exposure 60 min, n = 3): tended to decrease as the pH of DL preparations increased; Infectivity of MNV-1 after exposure, versus control ([2]; 1.0% DL final, DL preparations at pH 4.5–8.5, exposure 1 min, control distilled water, Dunnett's test p < 0.01, n = 3): significantly lower than that of the control; Average expansion of MNV-1 particle size [4]: 16.37 nm; Surface hydrophobicity (fluorescence intensity) [5]: significantly higher than that of native lysozyme at any pH; Expression of the Il6 gene [6]: did not increase"
"ITASVNCAKKIVSDGNGMNAWVAWRNRCKGTDVQAWIR [Lzm 88–125, synthetic peptide containing lysozyme residues 88–125]",0.2 log PFU/mL,
"KVFGRCELAAAMKRHGLDNYRGYSLGNWVCAAKFE [Lzm 1–35, synthetic peptide containing lysozyme residues 1–35]",1.7 log PFU/mL,
"Lysozyme: egg white lysozyme, single-chain polypeptide consisting of 129 amino acids",,Isoelectric point [7]: 11
"RCELAAAMKREGLDNYRGYSLGNWVCAAEFESNFN [Lzm R1, variant of Lzm 5–39, basic amino acids replaced with acidic amino acids]",lost,
"RCELAAAMKRHGLDNYRGYSLGNNVCAAKNESNNN [Lzm R2, variant of Lzm 5–39, aromatic amino acids replaced to reduce hydrophobicity]",lost,
"RCELAAAMKRHGLDNYRGYSLGNWVCAAKFESNFN [Lzm 5–39, synthetic peptide of lysozyme residues 5–39]",1.7 log PFU/mL,
"RCNLAAAMKRHGLNNYRGYSLGNWVCAAKFNSNFN [Lzm R3, variant of Lzm 5–39, all acidic amino acids replaced with uncharged amino acids]",2.0 log PFU/mL,
